Source: patent US10538681B2, “Aqueous ink for ink jet recording” (Seiko Epson Corporation, priority 2017, dated 2020)

Assay: water-octanol distribution coefficient (log P value)
Format: physicochemical
Details: octanol/water; value defined by OECD Test Guideline 107
From the text: The higher the log P value, the higher the hydrophobicity, and the lower the log P value, the higher the hydrophilicity.

Structure (SMILES)	logP
CC(C)CCOCC(O)CO (stereo not drawn) [3-isopentyloxy-1,2 propanediol]	0.64
C=C(C)C(=O)OCC(O)CO (stereo not drawn) [glycerin 1-methacrylate]	-0.12
CC(C)CCC(C)(O)C#CC(C)(O)CCC(C)C (stereo not drawn) [Surfynol DF 110 D, 2,5,8,11-tetramethyl-6-dodecyne-5,8-diol]	4.18

Same assay, conditions: value defined by OECD Test Guideline 107

Structure (SMILES)	water-octanol distribution coefficient (log P)
CCCC(=O)OCC(O)CO (stereo not drawn) [Example 1-butyrine, 1-butyrine]	−0.21
CCCCC(CC)C(=O)OCC(O)CO (stereo not drawn) [2-ethylhexanoate 2,3-dihydroxypropyl]	1.73
CCCC(=O)OCC(O)COC(=O)CCC [1,3-dibutyrin]	1.59
CCCCCCCC(O)CCCC(=O)OCC(O)CO (stereo not drawn) [5-hydroxydodecanoate 2,3-dihydroxypropyl]	2.15
CCCCCC(=O)OCC(O)CO (stereo not drawn) [α-monocaproin]	0.85
CCCCC(O)CO (stereo not drawn) [1,2-hexanediol]	0.7
